# Measured values published in patent US20060035907A1, “Methods of treating abnormal cell growth using c-MET and m-TOR inhibitors” (priority 2004, published 2006).
# Assays:
# [1] = test system: TPR-MET transformed BaF3 cells; experiment: Apoptosis assay, Annexin V / propidiumiodide staining by FACS; format: cell-based, murine; conditions: 0.2 µM, 18 h
# Experimental: (§1) Apoptosis assays. The activity of caspase-3-was measured in cell lysates (CaspACE Assay System, Promega) and Annexin V positive staining was determined by FACS analysis (Annexin-V-Fluos Staining Kit, Roche Diagnostics) according to the manufacturer's directions in cells that were either treated with PHA665752 or the solvent DMSO.
# (§2) Referring to FIG. 2, TPR-MET transformed BaF3 cells were treated for 18 h with either DMSO or the indicated amount of PHA665752 (n=3). A: Annexin V and propidiumiodide staining was determined by flow cytometry. B: Activity of caspase-3 was determined in cell lysate (n=3). C: The percentage of cells in different cell cycle phases was determined by flow cytometry after propidiumiodide staining (n =3).
# p70-S6K[Thr421/Ser424] = experiment: Immunoblotting, phospho-p70-S6K[Thr421/Ser424] in TPR-MET transformed BaF3 cells; format: cell-based, murine; conditions: FIG. 4C
# Experimental: (§3) Immunoblotting. Proteins were extracted from whole cells by lysing them in a Tris buffer (50 mM, pH 8.0) containing NaCl (150 mM), NP40 (1%, v/v), deoxycholic acid (0.5%, w/v), sodium dodecylsulfate (0.1%, w/v), NaF (1 mM), Na3VO4 (1 mM) and glycerol (10%, v/v) (Sigma, St. Louis, Mo.) supplemented with a protease inhibitor cocktail (complete, Roche, Indianapolis, Ind.). Polyclonal antibodies against p70-S6K (Biosource International, Camarillo, Calif.), total c-MET (C-12, Santa Cruz, Santa Cruz, Calif.), phosphatidylinositol-3′-kinase (Upstate Biotechnology, Lake Placid, N.Y.) and phosphorylated AKT[Ser473] or p70-S6K[Thr421/Ser424] (Cell Signaling, Beverly, Mass.), phospho-MET[Tyr1230/1234/1235] (Biosource International, Camarillo, Calif.) as well as phosphotyrosine (4G10, Upstate Biotechnology, Lake Placid, N.Y.) were used for immunoblotting.
# (§4) Referring to FIG. 4, phosphorylation of cellular proteins was determined by immunoblotting in whole cell lysate as indicated using anti-phosphotyrosine antibody (4G10) (A), total c-MET antibody, anti-pY1230/1234/1235-MET antibody (recognizing the corresponding pY361/365/366 sites in TPR-MET), anti-pY1349-MET (recognizing the pY480 site in TPR-MET) and anti-pY1365-MET (recognizing the pY496 site in TPR-MET) phospho-antobodies (B), and phospho-AKT and phospho-S6K antibodies (C). […]
# [2] = test system: BCR-ABL transformed BaF3 cells; experiment: Cell growth of BCR-ABL transformed BaF3 cells; format: cell-based, murine
# Experimental: (§5) Cells. The murine pre-B cell line BaF3 was grown in RPMI 1640 containing 10% fetal calf serum and 10% WEHI-conditioned medium as a source of murine IL-3. BaF3 cell lines transfected with a BCR/ABL, TEUABL, TEUJAK2, or TEUPDGFβR cDNA were grown in the absence of growth factors. A TPR/MET expressing BaF3 cell line was generated by transfection of an expression vector containing the TPR/MET cDNA as previously described (Sattler, M., Pride, Y. B., Ma, P., Gramlich, J. L., Chu, S. C., Quinnan, L. A., Shirazian, S., Liang, C., Podar, K., Christensen, J. G. & Salgia, R. (2003). Cancer Res, 63, 5462-9.). The number of viable cells after treatment with DMSO or PHA665752 was determined using an MTT assay (In Vitro Toxicology Assay Kit, Sigma, St. Louis, Mo.) or trypan blue exclusion.
# (§6) Referring to FIG. 1, BaF3 cells lines transformed by tyrosine kinase oncogenes were used to determine cell growth (A-C) or transwell migration (D) in response to the small molecule c-MET kinase inhibitor PHA665752. A: The relative growth of BaF3 cells transformed by TPR-MET in response to different concentrations of PHA665752 was determined after 18 h (n=3). […] D: Cells were treated for 18 hr with the indicated dose of PHA665752 and the spontaneous transwell migration relative to DMSO-treated cells determined (n=4).
# [3] = test system: tyrosine phosphorylation of cellular proteins in BCR-ABL transformed BaF3 cells; experiment: Immunoblotting, tyrosine phosphorylation of cellular proteins in BCR-ABL transformed BaF3 cells; format: cell-based, murine; conditions: BCR-ABL transformed BaF3 cells (data not shown)
# Experimental: as §3
# AKT[Ser473] = experiment: Immunoblotting, phospho-AKT[Ser473] in TPR-MET transformed BaF3 cells; format: cell-based, murine; conditions: FIG. 4C
# Experimental: as §3, §4
# [4] = test system: TEL-ABL transformed BaF3 cells; experiment: Cell growth of TEL-ABL transformed BaF3 cells; format: cell-based, murine; conditions: 0.2 μM, 18 hours, FIG. 1C
# Experimental: as §5, §6
# [5] = test system: TEL-JAK2 transformed BaF3 cells; experiment: Cell growth of TEL-JAK2 transformed BaF3 cells; format: cell-based, murine; conditions: 0.2 μM, 18 hours, FIG. 1C
# Experimental: as §5, §6
# TPR-MET = biological target: T1, TPR-MET (Homo sapiens, UniProt P08581); experiment: Immunoblotting, TPR-MET autophosphorylation with phosphospecific antibodies; format: cell-based; conditions: TPR-MET transformed BaF3 cells, FIG. 4B
# T1 construct: TPR portion (fusion partner, nucleoprotein TPR; human entry would be P12270); expressed in transfected cells; host or cells: BaF3 (murine pre-B cell line); the other entry of the earlier key: TPR (P12270, Nucleoprotein TPR)
# Experimental: as §3, §4
# caspase-3 = experiment: Caspase-3 activity in cell lysates; format: cell-based, murine; conditions: compared to DMSO treated cells, 18 h, n=3, p<0.03
# Experimental: as §1, §2
# BaF3.TPR-MET cells = experiment: Transwell migration assay; format: cell-based, murine; conditions: Mus musculus, compared to DMSO treated cells, n=4, read-out: inhibition of the cell migration
# Experimental: (§7) Referring to FIG. 1, BaF3 cells lines transformed by tyrosine kinase oncogenes were used to determine cell growth (A-C) or transwell migration (D) in response to the small molecule c-MET kinase inhibitor PHA665752. A: The relative growth of BaF3 cells transformed by TPR-MET in response to different concentrations of PHA665752 was determined after 18 h (n=3). B: TPR-MET transformed BaF3 cells were either left untreated (♦) or treated (▴) with PHA665752 (1 μM) for the indicated time in the presence or absence of IL-3 (n=3). C: BaF3 cells transformed by tyrosine kinase oncogenes were treated for 18 h with PHA665752 (1 μM) (n=3). D: Cells were treated for 18 hr with the indicated dose of PHA665752 and the spontaneous transwell migration relative to DMSO-treated cells determined (n=4).
# [6] = test system: tyrosine phosphorylation of cellular proteins in BaF3.TPR-MET cells; experiment: Immunoblotting, tyrosine phosphorylation of cellular proteins in BaF3.TPR-MET cells; format: cell-based, murine; conditions: anti-phosphotyrosine antibody (4G10), FIG. 4A
# Experimental: as §3, §4
# parental BaF3 cells = experiment: Cell growth of IL-3 stimulated parental BaF3 cells; format: cell-based, murine; conditions: 0.2 μM, 72 hour culture (data not shown)
# [7] = test system: TPR-MET transformed BaF3 cells; experiment: Cell cycle analysis (propidiumiodide, FACS); format: cell-based, murine; conditions: 18 h
# Experimental: Cell cycle analysis. Fixed cells were stained with propidiumiodide and cell cycle parameters analyzed by FACS analysis.
# as §2
# [8] = test system: TPR-MET transformed BaF3 cells; experiment: Cell growth of TPR-MET transformed BaF3 cells (MTT assay or trypan blue exclusion); format: cell-based, murine
# Experimental: as §5, §7
# Referring to FIG. 5, the relative growth of BaF3 cells transformed by TPR-MET in response to different concentrations of rapamycin (0.01 nM to 10 nM) was determined in the presence (▴) or absence (▪) of PHA665752 (0.5 μM) after a 3 day culture (n=3).
# [9] = test system: TEL-PDGFFBR transformed BaF3 cells; experiment: Cell growth of TEL-PDGFFBR transformed BaF3 cells; format: cell-based, murine; conditions: 0.2 μM, 18 hours, FIG. 1C
# Experimental: as §5, §6
# T1 sequence (P08581 with tags, fused parts or gaps): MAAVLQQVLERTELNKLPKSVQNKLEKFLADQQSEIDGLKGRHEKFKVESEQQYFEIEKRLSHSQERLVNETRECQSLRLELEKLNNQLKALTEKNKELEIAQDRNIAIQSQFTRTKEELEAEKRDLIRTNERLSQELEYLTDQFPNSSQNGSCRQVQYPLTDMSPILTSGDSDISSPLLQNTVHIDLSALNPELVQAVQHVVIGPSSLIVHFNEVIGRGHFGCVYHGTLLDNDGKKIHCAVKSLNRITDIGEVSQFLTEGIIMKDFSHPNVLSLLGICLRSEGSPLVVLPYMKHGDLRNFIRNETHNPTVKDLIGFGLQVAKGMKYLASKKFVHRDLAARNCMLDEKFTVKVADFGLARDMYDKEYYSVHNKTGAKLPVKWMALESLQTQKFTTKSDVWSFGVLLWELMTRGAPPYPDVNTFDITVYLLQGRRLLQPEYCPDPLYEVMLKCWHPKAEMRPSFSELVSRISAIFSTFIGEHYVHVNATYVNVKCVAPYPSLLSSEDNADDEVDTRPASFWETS
smiles,measurement,setting,value
"Cc1[nH]c(/C=C2\C(=O)Nc3ccc(S(=O)(=O)Cc4c(Cl)cccc4Cl)cc32)c(C)c1C(=O)N1CCC[C@@H]1CN1CCCC1 [PHA665752, (3Z)-5-[(2,6-dichlorobenzyl)sulfonyl]-3-[(3,5-dimethyl-4-{[(2R)-2-(pyrrolidin-1-ylmethyl)pyrrolidin-1-yl]carbonyl}-1H-pyrrol-2-yl)methylene]-1,3-dihydro-2H-indol-2-one]",cells in early apoptosis (Annexin V positive),[1],13.9±1.0%
same,cells in late apoptosis (Annexin V plus propidiumiodide positive),[1],19.2±1.8%
same,number of apoptotic cells (of total population),[1]; control cells 5%,33.1%
same,phosphorylation of the mTOR substrate p70-S6K[Thr421/Ser424],p70-S6K[Thr421/Ser424],reduced phosphorylation
same,inhibition of cell growth,"[2]; 0.2 μM, 18 hours, BCR-ABL transformed BaF3 cells, FIG. 1C",did not inhibit cell growth
same,effect on cell growth in the presence of IL-3,"[2]; BCR-ABL transformed cells, control experiment, presence of IL-3, 72 hour culture, FIG. 1B",only little effect on cell growth
same,tyrosine phosphorylation of cellular proteins,[3],did not alter tyrosine phosphorylation of cellular proteins
same,serine phosphorylation of AKT[Ser473],AKT[Ser473],reduced serine phosphorylation
same,inhibition of cell growth,[4],did not inhibit cell growth
same,inhibition of cell growth,[5],did not inhibit cell growth
same,"autophosphorylation in the catalytic tyrosine kinase domain at Tyr361/365/366, Tyr480 and Tyr496",TPR-MET,inhibits autophosphorylation
same,increase in caspase-3 activity,caspase-3,3.5±0.7 fold
same,inhibition at 0.2 µM,BaF3.TPR-MET cells,92.5 ± 3%
same,tyrosine phosphorylation of cellular proteins,[6],reduced tyrosine phosphorylation of cellular proteins in a dose dependent manner
same,growth inhibitory effect,parental BaF3 cells,did not observe a significant growth inhibitory effect
same,percentage of cells in G2/M-phase,"[7]; 0.2 μM, DMSO 12.2%",5.5%
same,percentage of cells in G1-phase,"[7]; 0.2 μM, DMSO 42.4%",77.0%
same,percentage of cells in S-phase,"[7]; 0.2 μM, DMSO 45.4%",17.5%
same,cells in sub-G1-phase,[7]; consistent with apoptotic cells,increase of cells in sub-G1-phase
same,effect on cell growth in the absence of IL-3,"[8]; BaF3.TPR-MET, absence of IL-3, 72 hour culture, PHA665752 (1 μM) per FIG. 1B legend",completely blocked cell growth
same,IC50,"[8]; Mus musculus, BaF3.TPR-MET cells, after 18 h, FIG. 1A, read-out: IC50, inhibition of cell growth",< 60 nM
same,effect on cell growth in the presence of IL-3,"[8]; TPR-MET transformed cells, presence of IL-3, 72 hour culture, PHA665752 (1 μM) per FIG. 1B legend",only little effect on cell growth
same,inhibition of cell growth,[9],did not inhibit cell growth
